What was measured:
[1] = test system: type II collagen mRNA; test: Osteoarthritic rabbit model (ACLT), intraarticular injection, RT-PCR of type II collagen; assay type: in vivo; conditions: rabbit ACLT knee, intraarticular once a week for 5 weeks
Procedure: (§1) Mature New Zealand White rabbits underwent bilateral anterior cruciate ligament transection (ACLT). ACLT was performed using a medial arthrotomy method. Postoperatively the animals were permitted cage (60 cm×60 cm×40 cm) activity without immobilization. The right knees received via intraartiticular injection DHEA, DHEA-pyruvate or DHEA+HA, 4 weeks after ACLT and once a week for 5 weeks. The left knees received 0.3 ml of intraarticular injection with control solution (carrier solution). After 9 weeks from ACLT, the animas were sacrificed.
(§2) Synovium (entire tissue) around the infrapatellar fat pads and cartilage tissue from the femoral condyle and the tibial plateau were harvested. The subsequent experimental procedure was the same as described in Test Example IV.

[2] = test system: TIMP-1 mRNA; test: Osteoarthritic rabbit model (ACLT), intraarticular injection, RT-PCR of TIMP-1; assay type: in vivo; conditions: rabbit ACLT knee, intraarticular once a week for 5 weeks
Procedure: as §1, §2

[3] = test system: MMP-1 mRNA; test: Effect of IL-1β on MMP-1 mRNA expression in chondrocyte culture, RT-PCR; assay type: cell-based, human; conditions: 1000 μg/ml of IL-1β, 3 days
Procedure: (§3) Sixteen hours prior to a treatment, the complete culture medium was replaced with a serum-free medium. Chondrocyte alginate bead cultures were then treated with IL-1β ([…], (Calbiochem) and DHEA (0, 10, 50 or 100 μM) for 3 days.
(§4) Total RNA from chondrocytes was extracted using RNeasy Mini Kit (QIAGEN). Reverse transcription from 1 μg of total RNA was conducted using First Strand cDNA Synthesis Kit (MBI Fermentas) according to manufacturer's recommendation with random hexamers. The resulting cDNA was then amplified by polymerase chain reaction using AccuPower PCR Premix (Bioneer, Korea) in a final volume of 20 μl using three thermocycler temperatures (30 sec at […], 30 sec at 60° C., and 30 sec at […]). All reactions were determined to be in the linear range of amplification with the cycle number ranging from 14 to 30. The PCR products were analyzed by separation on a 2% agarose gel followed by ethidium bromide staining. Following electrophoresis, photographs were taken and analyzed using a densitometric program (TINA; Raytest Isotopenmeβgerate, Germany). Integrated density values for the genes in question were then normalized to the glyceraldehyde-3-phosphate dehydrogenase (GAPDH) values for a semiquantitative assessment. After normalizing with respect to GAPDH, percentage increase or decrease was determined. Each experiment was repeated at least three times. […]

[4] = test system: MMP-3 mRNA; test: Effect of IL-1β on MMP-3 mRNA expression in chondrocyte culture, RT-PCR; assay type: cell-based, human; conditions: 100 μg/ml of IL-1β, 3 days
Procedure: as §3, §4

| Molecule | expression of type II collagen [1] | expression of TIMP-1 [2] | MMP-1 mRNA, increase [3] | MMP-3 mRNA, increase [4] |
| --- | --- | --- | --- | --- |
| CC(=O)C(=O)O[C@H]1CC[C@@]2(C)C(=CC[C@@H]3[C@@H]2CC[C@]2(C)C(=O)CC[C@@H]32)C1 [DHEA-pyruvate, DHEA-Pyruvate] | increased | increased |  |  |
| IL-1β: recombinant human interleukin-1β (Calbiochem), used to induce MMP mRNA in chondrocytes |  |  | 470% | 310% |

— patent US20040038950A1, “Pharmaceutical composition for treating IL-1 related diseases or disorders” (priority 2002, published 2004)
